{"source": "patent US20060029556A1", "about": "“Aqueous-alcoholic depigmenting gels” (GALDERMA RESEARCH & DEVELOPMENT, S.N.C., priority 2002, published 2006)", "origin": "cited, not measured here", "note": "Read-outs that look alike come from different tables or passages of the source."}
{"compound": "Oc1ccc(O)cc1", "note": "[hydroquinone]", "values": [{"measurement": "incidence of irritation", "setting": "hydroquinone concentration 10%", "result": "relatively high"}, {"measurement": "incidence of irritation", "setting": "hydroquinone concentration of 2%", "result": "virtually nonexistent"}, {"measurement": "incidence of irritation", "setting": "hydroquinone preparations with a 5% dose", "result": "reduces greatly"}]}
